Experimental findings from US20240417435A1, “DEFENSIN-DERIVED PEPTIDE WITH ANTIBACTERIAL ACTIVITY ALSO AGAINST MULTI-ANTIBIOTIC-RESISTANT BACTERIA” (priority 2021, published 2024) are described below.

Converted amounts (≈) assume the structure as drawn. Where a SMILES comes first, the peptide text is derived from it.

In one assay the test system is MRSA strain 1. The assay is classed as cell-based, Staphylococcus aureus. As to the method: (§1) The antimicrobial activity of peptide γ2 was evaluated versus Pseudomonas aeruginosa ATCC 27853, Escherichia coli ATCC 13762 and Staphylococcus aureus ATCC 6538, and versus multidrug-resistant (MDR) clinical isolates of Methicillin-Resistant Staphylococcus aureus (MRSA), extended-spectrum β-lactamase (ESBL)-producing E. coli, P. aeruginosa and Acinetobacter baumannii complex. The isolates were identified by mass spectrometry using the MALDI (matrix-assisted laser desorption/ionisation) mass spectrometer and the biochemical phenotyping method in a VITEKR 2 bioMérieux system (bioMérieux Italia S.p.a., Bagno a Ripoli, Florence, Italy), according to the manufacturer's instructions. The antibiotic susceptibility profile was evaluated with the VITEKR 2 bioMérieux System. The microorganisms were cultured in broth and agar at 37° C. The media used were BD Brain Heart Infusion broth (BHI) (BD, Franklin Lakes, NJ, USA) and BHI agar (OXOID, Basingstoke, Hampshire, UK), BD Trypticase Soy agar with 5% sheep's blood and MacConkey agar (OXOID, Basingstoke, Hampshire, UK). The isolates were stored frozen at −80° C. in BHI broth supplemented with 10% (v/v) glycerol (Carlo Erba Reagents, Milan, Italy) until use, and the work cultures were activated in the respective broths at 37° C. for 15-18 h.
(§2) Assays of the antibacterial activity of peptide γ2, in both reduced and oxidised form, were conducted against P. aeruginosa ATCC 27853, E. coli ATCC 13762, S. aureus ATCC 6538 and MDR clinical isolates. The strains were cultured under aerobic conditions in BHI broth at 37° C. and incubated with peptide γ2 for 2 hours at 37° C. Various concentrations of peptide were used, ranging from 1 μM to 128 μM. Each test was conducted in triplicate with three independent cultures. The minimum inhibitory concentration (MIC) and the minimum bactericidal concentration (MBC) of the peptide were determined with a modified version of the Clinical and Laboratory Standards Institute broth microdilution assay, using a final inoculum concentration of 10^5 CFU/ml, as previously described (Scudiero O et al., Antimicrob Agents Chemother 2010; 54:2312-22; Scudiero O et al. Antimicrob Ag Chemother 2013; 57:1701-8).
(§3) The MIC is indicated by the concentration interval, which comprise the upper growth limit and the first concentration which could not support visible bacterial growth after incubation. The MBC was defined as the lowest concentration at which no viable colonies were observed. The peptide concentrations were 128.0, 64.0, 32.0, 16.0, 8.0, 4.0, 2.0 and 1 μM. For the time-kill studies against the ATCC and MDR strains, the bacteria were cultured in BHI broth until the late log growth phase at 37° C. The bacterial suspensions, containing about 10^6 CFU/ml (adjusted by the spectrophotometer to OD600 nm), were diluted 1:100 in PBS1× and then incubated at 37° C. with or without the peptide, selected at concentrations corresponding to 1, 2 and 4×MIC (as determined above). At baseline and 1, 2, 3 and 5 hours after incubation, a portion of each sample was harvested, diluted in series in PBS1× and seeded on BHI agar. The plates were incubated for […] at 37° C., and the viable bacteria count was conducted by the CFU method. All the data were expressed as mean±SD of three independent experiments.

A further assay concerns MRSA strain 2. The assay is classed as cell-based, Staphylococcus aureus. As for the experimental part: as §1, §2, §3
For another assay, the system named is MRSA strain 3. The assay is classed as cell-based, Staphylococcus aureus. As to the method: as §1, §2, §3
The next assay concerns S. aureus ATCC 6538. The assay is classed as cell-based, Staphylococcus aureus. As to the method: as §1, §2, §3
The subject of another assay is E. coli ATCC 13762. The format is cell-based, Escherichia coli. As for the experimental part:
as §1, §2, §3

For a further assay, the system named is E. coli ESBL strain 1. The format is cell-based, Escherichia coli. As for the experimental part:
as §1, §2, §3

A further assay relates to E. coli ESBL strain 2. The assay is classed as cell-based, Escherichia coli. As to the method:
as §1, §2, §3

Assay [1] deals with A. baumannii MDR strain 1. The assay is classed as cell-based, Acinetobacter baumannii complex. As for the experimental part:
as §1, §2, §3

For assay [2], the system named is A. baumannii MDR strain 2. The format is cell-based, Acinetobacter baumannii complex. As for the experimental part:
as §1, §2, §3

In assay [3] the test system is MRSA strain 2 (intracellular, HeLa cells). Briefly: Invasion and protection assay in HeLa cells. The format is cell-based, Staphylococcus aureus. The settings on record: MRSA 2 strain in HeLa cells; 40 μM for 1 h. As for the experimental part:
(§4) The S. aureus ATCC 6538, MRSA strain 2 and MRSA strain 3 invasion assays were conducted as previously described (Colicchio R et al., Antimicrob Agents Chemother 2015; 59:7637-49; Spinosa M R et al. Infect Immun 2007; 75:3594-3603). HeLa cells (ATCC CCL-2) were used for the standard invasion and intracellular viability assays. The cells were cultured in DMEM with 2 mM L-glutamine. The cells were infected at a multiplicity of infection (MOI) of 50 for 1 h, washed twice with PBS1× to eliminate most of the extracellular bacteria, exposed to gentamicin (Sigma-Aldrich) to kill the remaining extracellular bacteria, and then destroyed with saponin (0.5%) to release the intracellular bacteria. To quantify the intracellular staphylococci released by the HeLa cells, the lysed cell suspension was plated on BHI agar, and the number of CFUs was counted the next day. When required, cells were re-incubated in the cell culture medium for various times (3 and 5 hours) after treatment with gentamicin. Treatment with gentamicin was conducted using 105 μM, a concentration 10 times higher than the MIC, for 30 minutes at 37° C. with 5% CO2. Cells were then washed thoroughly with PBS1× to remove the gentamicin and dead extracellular bacteria, and then lysed or re-incubated with medium. To evaluate the protection with the reduced peptide γ2 after treatment with gentamicin, the molecule was added to the sample at the final concentration of 40 µM for 1 hour, then washed twice with PBS1×, and finally destroyed with saponin. As the antibacterial activity of the reduced and oxidised peptide γ2 against S. aureus ATCC 6538 was very similar (Table 1), only the reduced form was used in the test. In all the experiments, the bacteria were centrifuged (60×g) on the cells to start the assay. The experiments were conducted in triplicate, and the data were expressed as mean±SD.

Assay [4] relates to S. aureus ATCC 6538 (intracellular, HeLa cells). The experiment in a line: Invasion and protection assay in HeLa cells. The assay is classed as cell-based, Staphylococcus aureus. The following applies: wild-type strain S. aureus ATCC 6538 in HeLa cells; 40 μM for 1 h; all times tested. As for the experimental part: as §4

`CC[C@H](C)[C@H](NC(=O)[C@H](CCC(N)=O)NC(=O)[C@H](CCCNC(=N)N)NC(=O)[C@H](CCCNC(=N)N)NC(=O)[C@H](CCCCN)NC(=O)[C@@H]1CCCN1C(=O)[C@H](CC(C)C)NC(=O)[C@H](CS)NC(C)=O)C(=O)NCC(=O)N[C@@H](CCCCN)C(=O)N[C@@H](CO)C(=O)N[C@@H](CO)C(=O)N[C@H](C(=O)N[C@@H](CCCNC(=N)N)C(=O)NCC(=O)N[C@@H](CCCNC(=N)N)C(=O)N[C@@H](CCCCN)C(=O)N[C@@H](CO)C(=O)N[C@@H](CS)C(=O)N[C@@H](CCCCN)C(=O)N[C@@H](CCCCN)C(N)=O)[C@@H](C)O` [Reduced peptide γ2] (Ac-CLPKRRQIGKSSTRGRKSCKK-NH2): the MBC in the assay with MRSA strain 1 was 1 µM (≈ 2.46 µg/mL); against MRSA strain 2 it was 16 µM (≈ 39.3 µg/mL); in the assay with MRSA strain 3, 4 µM (≈ 9.84 µg/mL); against S. aureus ATCC 6538, 1 to 2 µM; in the assay on E. coli ATCC 13762 it was 2 µM (≈ 4.92 µg/mL); with E. coli ESBL strain 1 it was 2 µM (≈ 4.92 µg/mL). Also, the values for the MBC (in the assay with E. coli ESBL strain 2; in assay [1]; in assay [2] (MDR strain 2)) were 16 µM (≈ 39.3 µg/mL), 64 µM (≈ 157 µg/mL) and 1 µM (≈ 2.46 µg/mL), respectively. For the same compound, the minimum inhibitory concentration (MIC) in the assay on MRSA strain 1 is 1 µM (≈ 2.46 µg/mL); in the assay with MRSA strain 2 it was 4 to 8 µM; with MRSA strain 3 it was 1 µM (≈ 2.46 µg/mL); against E. coli ATCC 13762, 2 µM (≈ 4.92 µg/mL); in the assay with E. coli ESBL strain 1, 2 µM (≈ 4.92 µg/mL); in the assay on E. coli ESBL strain 2 it was 2 µM (≈ 4.92 µg/mL). In assay [2] (A. baumannii MDR strain 2), this compound came in with an MIC of 1 µM (≈ 2.46 µg/mL). Moreover, the “viable intracellular bacteria (CFU)” value is given as “bacteriostatic effect” in assay [3] and “great reduction in viable intracellular bacteria” in [4].
